Measured values: patent publication US20040013721A1, “Controlled and sustained release properties of polyelectrolyte multilayer capsules” (priority 2000, published 2004)

Experiment: Permeability for probe polymers and dyes, and its temperature dependence, by confocal imaging
Format: physicochemical
Conditions: independent of their charge
Method: Monodisperse spheres (d=5.94 μm) of a weakly polymerized melamine-formaldehyde resin were used as templates (Microparticle GmbH). The particles were covered by alternating adsorption of sodium polystyrene sulfonate PSS (MW 70 000 g mol^−1, Aldrich) and polyallylamine hydrochloride PAH (MW 70 000 g mol^−1, Aldrich) from an aqueous solution of 10^−2 M PSS in 0.1 M sodium chloride. After 8 layers the core was dissolved in 0.1 M hydrochloric acid. The decomposition products were removed by washing with acid and an aqueous solution of 10^−2 M NaCl. Hollow polyelectrolyte capsules remained. […]
For the study of the permeability, fluorescence labeled polymers were used. […] The MW of the polymer was determined being 120 000 g/mol by gel permeation chromatography. […]
Laser scanning microscopy was performed for the determination of the loading grade of the capsules. […] The amounts of polymer/monomer in the interior were determined by integration of the fluorescence intensity inside the capsules. The exact concentration was taken from calibration curves, determined for each fluorescent probe separately. […]
The permeability of the capsules was studied for positively (PAH) and negatively charged (PSS), zwitterionic (albumine) and noncharged (dextran) fluorescent polymers (dextran). […] Then, the fluorescence intensity in the center of the capsules was measured by confocal imaging. […]

penetration of the capsule wall by small dye molecules	Molecule
can penetrate the capsule wall	rhodamine
can penetrate the capsule wall	CN(C)c1ccc2cc3ccc(N(C)C)cc3nc2c1 [acridine orange]
